From patent US8877748B2, “Heterocyclic fused anthraquinone derivatives, manufacturing method and pharmaceutical composition using thereof” (National Defense Medical Center, priority 2012, dated 2014)

How the values were obtained:
Format in all cases: cell-based, human
[1] = tested on: PC-3 prostate cancer cell line; assay: SRB assay cell viability, PC-3 prostate cancer cell line; details: Homo sapiens, PC-3 prostate cancer cell line, Table II prints no unit, μM printed, read-out: SRB assay: 50% inhibition of cancer cell proliferation of sample concentration (IC50) of PC-3 prostate cancer cell line
CCRF-CEM = assay: NCI screening platform one-dose single concentration screening, leukemia CCRF-CEM; details: 10 μM
HL-60, TB = assay: NCI one-dose screening, leukemia HL-60, TB; details: 10 μM
MOLT-4 = assay: NCI one-dose screening, leukemia MOLT-4; details: 10 μM
SR = assay: NCI one-dose screening, leukemia SR; details: 10 μM
PRMI-8226 cell line = assay: NCI one-dose screening, leukemia PRMI-8226; details: 10 μM
K562cell line = assay: NCI one-dose screening, leukemia K562; details: 10 μM
EKVX = assay: NCI one-dose screening, non-small cell lung cancer EKVX; details: 10 μM
HOP-62 = assay: NCI one-dose screening, non-small cell lung cancer HOP-62; details: 10 μM
NCI-H226 = assay: NCI one-dose screening, non-small cell lung cancer NCI-H226; details: 10 μM
NCI-H23 = assay: NCI one-dose screening, non-small cell lung cancer NCI-H23; details: 10 μM
NCI-H322M = assay: NCI one-dose screening, non-small cell lung cancer NCI-H322M; details: 10 μM; Non-small cell lung cancer
NCI-H460 = assay: NCI one-dose screening, non-small cell lung cancer NCI-H460; details: 10 μM
NCI-H522 = assay: NCI one-dose screening, non-small cell lung cancer NCI-H522; details: 10 μM
A549/ATCC = assay: NCI one-dose screening, non-small cell lung cancer A549/ATCC; details: 10 μM
COLO 205 = assay: NCI one-dose screening, colon cancer COLO 205; details: 10 μM
HCC-2998 = assay: NCI one-dose screening, colon cancer HCC-2998; details: 10 μM
HCT-116 = assay: NCI one-dose screening, colon cancer HCT-116; details: 10 μM
HCT-15 = assay: NCI one-dose screening, colon cancer HCT-15; details: 10 μM
KM12 = assay: NCI one-dose screening, colon cancer KM12; details: 10 μM
HT29 = assay: NCI one-dose screening, colon cancer HT29; details: 10 μM
SF-268 = assay: NCI one-dose screening, CNS cancer SF-268; details: 10 μM
SF-295 = assay: NCI one-dose screening, CNS cancer SF-295; details: 10 μM
SF-539 = assay: NCI one-dose screening, CNS cancer SF-539; details: 10 μM
SNB-19 = assay: NCI one-dose screening, CNS cancer SNB-19; details: 10 μM
SNB-75 = assay: NCI one-dose screening, CNS cancer SNB-75; details: 10 μM
U251 = assay: NCI one-dose screening, CNS cancer U251; details: 10 μM
LOX IMVI = assay: NCI one-dose screening, melanoma LOX IMVI; details: 10 μM
MALME-3M = assay: NCI one-dose screening, melanoma MALME-3M; details: 10 μM
M14 = assay: NCI one-dose screening, melanoma M14; details: 10 μM
UACC-62 = assay: NCI one-dose screening, melanoma UACC-62; details: 10 μM
UACC-257 = assay: NCI one-dose screening, melanoma UACC-257; details: 10 μM
SK-MEL-2 = assay: NCI one-dose screening, melanoma SK-MEL-2; details: 10 μM
SK-MEL-28 = assay: NCI one-dose screening, melanoma SK-MEL-28; details: 10 μM
SK-MEL-5 = assay: NCI one-dose screening, melanoma SK-MEL-5; details: 10 μM
IGROV1 = assay: NCI one-dose screening, ovarian cancer IGROV1; details: 10 μM
OVCAR-3 = assay: NCI one-dose screening, ovarian cancer OVCAR-3; details: 10 μM
OVCAR-4 = assay: NCI one-dose screening, ovarian cancer OVCAR-4; details: 10 μM
OVCAR-5 = assay: NCI one-dose screening, ovarian cancer OVCAR-5; details: 10 μM
OVCAR-8 = assay: NCI one-dose screening, ovarian cancer OVCAR-8; details: 10 μM
786-O = assay: NCI one-dose screening, renal cancer 786-O; details: 10 μM
CAKI-1 = assay: NCI one-dose screening, renal cancer CAKI-1; details: 10 μM
ACHN = assay: NCI one-dose screening, renal cancer ACHN; details: 10 μM
SN12C = assay: NCI one-dose screening, renal cancer SN12C; details: 10 μM
TK-10 = assay: NCI one-dose screening, renal cancer TK-10; details: 10 μM
RXF, 393 = assay: NCI one-dose screening, renal cancer RXF, 393; details: 10 μM
NCl/ADR-RES = assay: NCI one-dose screening, breast cancer NCl/ADR-RES; details: 10 μM; listed under Ovarian cancer
MDA, -MB-435 = assay: NCI one-dose screening, breast cancer MDA, -MB-435; details: 10 μM; listed under Melanoma

SMILES: CCSc1cc2c(c3nsnc13)C(=O)c1ccccc1C2=O [C16, 4-(ethylthio)anthra[2,1-c][1,2,5] thiadiazol-6,11-dione]
- IC50 [1]: 5.39 µM
- Growth Percent CCRF-CEM (CCRF-CEM): −35.53%
- Growth Percent HL-60(TB) (HL-60, TB): −45.01%
- Growth Percent MOLT-4 (MOLT-4): −50.44%
- Growth Percent SR (SR): −54.27%
- Growth Percent RPMI-8226 (PRMI-8226 cell line): −35.20%
- Growth Percent K562 (K562cell line): −44.64%
- Growth Percent EKVX (EKVX): 56.13%
- Growth Percent HOP-62 (HOP-62): 2.44%
- Growth Percent NCI-H226 (NCI-H226): 53.41%
- Growth Percent NCI-H23 (NCI-H23): −25.43%
- Growth Percent NCI-H322M (NCI-H322M): 89.71%
- Growth Percent NCI-H460 (NCI-H460): 27.92%
- Growth Percent NCI-H522 (NCI-H522): −88.01%
- Growth Percent A549/ATCC (A549/ATCC): 20.39%
- Growth Percent COLO 205 (COLO 205): 97.05%
- Growth Percent HCC-2998 (HCC-2998): 90.47%
- Growth Percent HCT-116 (HCT-116): −82.82%
- Growth Percent HCT-15 (HCT-15): 2.65%
- Growth Percent KM12 (KM12): 69.33%
- Growth Percent HT29 (HT29): 77.39%
- Growth Percent SF-268 (SF-268): −54.89%
- Growth Percent SF-295 (SF-295): 79.94%
- Growth Percent SF-539 (SF-539): −22.78%
- Growth Percent SNB-19 (SNB-19): 83.19%
- Growth Percent SNB-75 (SNB-75): 33.65%
- Growth Percent U251 (U251): −73.58%
- Growth Percent LOX IMVI (LOX IMVI): −91.42%
- Growth Percent MALME-3M (MALME-3M): −58.68%
- Growth Percent M14 (M14): 47.15%
- Growth Percent UACC-62 (UACC-62): −38.24%
- Growth Percent UACC-257 (UACC-257): −86.35%
- Growth Percent SK-MEL-2 (SK-MEL-2): −69.35%
- Growth Percent SK-MEL-28 (SK-MEL-28): −41.99%
- Growth Percent SK-MEL-5 (SK-MEL-5): −94.86%
- Growth Percent IGROV1 (IGROV1): −54.45%
- Growth Percent OVCAR-3 (OVCAR-3): −76.39%
- Growth Percent OVCAR-4 (OVCAR-4): −100.00%
- Growth Percent OVCAR-5 (OVCAR-5): 115.03%
- Growth Percent OVCAR-8 (OVCAR-8): −79.84%
- Growth Percent 786-0 (786-O): 80.27%
- Growth Percent CAKI-1 (CAKI-1): −1.76%
- Growth Percent ACHN (ACHN): −44.97%
- Growth Percent SN12C (SN12C): −61.79%
- Growth Percent TK-10 (TK-10): 103.17%
- Growth Percent RXF 393 (RXF, 393): −62.42%
- Growth Percent NCI/ADR-RES (NCl/ADR-RES): −37.28%
- Growth Percent MDA-MB-435 (MDA, -MB-435): −61.08%
